Measurements: patent US11226337B2, “Chemoproteomic profiling of protein electrophilic and oxidative post-translational modifications” (Zenagem, LLC, priority 2017, dated 2022)

Columns and labels:
Experiment in all cases: SILAC RP-ABPP
Format in all cases: cell-based
[1] = molecular target: T1, ALDOA Fructosebisphosphate aldolase A (P04075) (Homo sapiens, UniProt P04075); conditions: SILAC H/L, HEK293T
T1 construct: shared by both the endogenous and recombinant forms of these proteins; endogenous in cells; host or cells: HEK293T and MDA-MB-231
T1 sequence (P04075 1-364): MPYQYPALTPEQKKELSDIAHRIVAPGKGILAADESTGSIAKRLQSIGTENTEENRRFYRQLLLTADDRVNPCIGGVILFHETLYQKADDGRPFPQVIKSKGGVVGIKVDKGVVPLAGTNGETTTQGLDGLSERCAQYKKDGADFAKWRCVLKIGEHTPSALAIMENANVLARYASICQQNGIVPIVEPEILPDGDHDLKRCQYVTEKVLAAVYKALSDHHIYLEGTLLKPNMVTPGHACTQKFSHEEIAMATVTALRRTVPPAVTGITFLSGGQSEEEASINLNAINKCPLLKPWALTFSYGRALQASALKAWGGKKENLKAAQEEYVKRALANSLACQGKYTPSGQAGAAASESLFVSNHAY
Method: (§1) For MS-based experiments, labelling was performed in a similar manner as described above in Example 2, maintaining the same concentrations of probes. Modifications to this protocol included using isotopically ‘light’ and ‘heavy’ SILAC cells that were also grown to near complete confluence prior to treatment. Isotopically light cells were treated with the non-clickable hydrazine probe (at the same concentration as the probe in ‘enrichment’ experiments) or the probe in the presence of 10-fold excess non-clickable hydrazine probe as a competitor (in ‘competition’ experiments). Isotopically heavy cells were treated with the probe for both types of experiments. These treatments were performed in non-SILAC media. Following treatments, cells were washed with cold PBS to remove the probe-containing media, harvested by scraping, collected by centrifugation (1,400 g, 3 min, 4° C.), washed again by resuspension in cold PBS and frozen as pellets at −80° C. until use.
(§2) The fractionated equimolar mixture of heavy and light soluble proteomes (1-1.5 mg) was diluted to 1 mL in PBS. Click reactions were scaled accordingly (except for biotin-azide) to maintain final concentrations of 0.1 mM TBTA, 1 mM CuSO4, 100 μM biotin-azide (10 mM in DMSO) and 1 mM TCEP. The mixture was vortexed and placed on a rotator at ambient temperature for 1 hour. Sequential addition of and mixture with pre-chilled methanol (MeOH, 2 mL), chloroform (CHCl3, 0.5 mL) and PBS (1 mL) on ice quenched the reaction. The precipitated proteome was centrifuged (5,000 g, 10 min, 4° C.) to fractionate the protein interphase from the organic and aqueous solvent layers. The protein pellet was washed with cold 1:1 MeOH:CHCl3 (3×1 mL), mildly sonicated in cold 4:1 MeOH:CHCl3 (2.5 mL) and pelleted once more by centrifugation (5,000 g, 10 min, 4° C.) to ensure click reagents were efficiently removed.
(§3) Heavy and light parent ion chromatograms associated with successfully identified peptides were extracted and compared using CIMAGE software as previously described^69. At least one ion of a co-eluting heavy-light pair must be accurately identified from a fragmentation event that occurred within the retention time window (±10 min) of parent ion elution. To ensure that the correct pair of peaks is quantified, chromatograms are extracted within a 10 ppm error tolerance of the predicted m/z, the signal-to-noise ratio must be >2.5 and the ‘co-elution correlation score’ and ‘envelope correlation score’ must have R^2 values ≥0.8. In addition, peptides detected as ‘singletons,’ where only the heavy ion of a peptide pair was identified, but for which passed all other filtering parameters, are given a default assigned ratio of ‘20,’ which is defined as any measured ratio that is ≥20.
(§4) To further eliminate false positives and any stochastic variability in the data, protein ratios were then determined by the median peptide ratio derived from three or more unique quantified peptides. Protein ratios that complied with these criteria from a single experiment were then averaged with ratios acquired from ≥3 replicates to provide final values for each type of experiment in both cell lines with both probes. […] Most importantly, there are no robustly measured ratios for proteins identified as probe 1 targets that had measured ratios of ˜1 with probe 2. Probe targets in HEK293T and MDA-MB-231 cells represent data combined from ≥3 independent biological replicates with each cell type performed with several independent batches of synthesized probes over a period of almost two years. […]

[2] = molecular target: T2, LGALS3BP Galectin3binding protein (Q08380) (Homo sapiens, UniProt Q08380); conditions: SILAC H/L, MDA-MB-231
T2 construct: In Situ Labelling of Cells with Hydrazine Probes for MS Experiments; endogenous in cells
T2 sequence (Q08380 19-585): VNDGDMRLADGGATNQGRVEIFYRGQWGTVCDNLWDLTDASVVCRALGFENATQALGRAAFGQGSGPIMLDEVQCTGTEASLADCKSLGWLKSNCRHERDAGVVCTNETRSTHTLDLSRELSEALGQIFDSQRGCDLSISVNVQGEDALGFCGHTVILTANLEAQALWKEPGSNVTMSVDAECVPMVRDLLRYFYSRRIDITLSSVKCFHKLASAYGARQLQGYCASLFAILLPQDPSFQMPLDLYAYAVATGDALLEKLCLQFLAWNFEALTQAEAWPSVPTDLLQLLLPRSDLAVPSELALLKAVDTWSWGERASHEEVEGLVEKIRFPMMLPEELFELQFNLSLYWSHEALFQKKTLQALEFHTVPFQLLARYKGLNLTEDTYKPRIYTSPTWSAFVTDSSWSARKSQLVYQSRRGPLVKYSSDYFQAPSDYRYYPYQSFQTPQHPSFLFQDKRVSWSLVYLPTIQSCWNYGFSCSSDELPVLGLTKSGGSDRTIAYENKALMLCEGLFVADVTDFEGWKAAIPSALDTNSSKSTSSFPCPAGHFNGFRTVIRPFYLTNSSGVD
Method: as §1, §2, §3, §4

[3] = molecular target: T3, ALDOC Fructosebisphosphate aldolase C (P09972) (Homo sapiens, UniProt P09972); conditions: SILAC H/L, HEK293T
T3 construct: shared by both the endogenous and recombinant forms of these proteins; endogenous in cells; host or cells: HEK293T and MDA-MB-231
T3 sequence (P09972 1-364): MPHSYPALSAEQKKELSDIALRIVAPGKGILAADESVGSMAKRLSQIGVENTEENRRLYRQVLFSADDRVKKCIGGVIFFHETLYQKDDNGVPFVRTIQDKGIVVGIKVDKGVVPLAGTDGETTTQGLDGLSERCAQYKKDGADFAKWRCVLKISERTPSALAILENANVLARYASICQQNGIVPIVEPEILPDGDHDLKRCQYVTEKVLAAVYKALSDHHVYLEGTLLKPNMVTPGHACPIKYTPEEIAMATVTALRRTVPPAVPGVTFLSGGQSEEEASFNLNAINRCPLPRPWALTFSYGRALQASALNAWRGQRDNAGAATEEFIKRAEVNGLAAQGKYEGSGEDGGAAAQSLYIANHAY
Method: as §1, §2, §3, §4

Row | enrichment ratioavg ([1]; probe 2 1 mM 0.5 h vs probe 4) | competition ratioavg ([1]; probe 2 vs probe 2+10x probe 4) | enrichment ratioavg ([2]; probe 2 1 mM 0.5 h vs probe 4) | competition ratioavg ([2]; probe 2 vs probe 2+10x probe 4) | enrichment ratioavg ([3]; probe 2 1 mM 0.5 h vs probe 4) | competition ratioavg ([3]; probe 2 vs probe 2+10x probe 4) | SMILES | enrichment ratioavg ([1]; probe 1 3 mM 0.5 h vs probe 3) | competition ratioavg ([1]; probe 1 vs probe 1+10x probe 3) | enrichment ratioavg ([2]; probe 1 3 mM 0.5 h vs probe 3) | competition ratioavg ([2]; probe 1 vs probe 1+10x probe 3) | enrichment ratioavg ([3]; probe 1 3 mM 0.5 h vs probe 3) | competition ratioavg ([3]; probe 1 vs probe 1+10x probe 3)
1 |  |  |  |  |  |  | C#CCNN.Cl [probe 1, prop-2-yn-1-ylhydrazine hydrochloride] | 16 | 3 | 7 | 3 | 16 | 3
2 | 12 | 5 | 7 | 3 | 14 | 5 | C#CCCNC(=O)c1ccc(NN)cc1.Cl [probe 2, N-(but-3-yn-1-yl)-4-hydrazinylbenzamide hydrochloride] |  |  |  |  |  | 
